{"source": "paper PMC7395176", "about": "“Retromer stabilization results in neuroprotection in a model of Amyotrophic Lateral Sclerosis” (Nature Communications, 2020)", "tested_on": "Vps35, Vps26, and Vps29 mRNAs", "assay": "Real-time PCR of CRC genes in Neuro2a cells", "assay_type": "cell-based", "details": "10 μM, 48 h", "source_text": "Lumbar spinal tracts dissected from saline-perfused mice or Neuro2A cells were lysed to extract total RNAs using the RNeasy Mini Kit (Qiagen) according to the manufacturer’s recommendations, including DNase (Promega) digestion. We synthetized the cDNA using ThermoScript RT-PCR System (Invitrogen) and Random Hexamer (Invitrogen), according to the manufacturer’s instructions. The LightCycler 480 System (Roche) and LightCycler 480 SYBR Green I Master Mix (Roche) were used for real-time PCR experiments. Normalization was obtained using the housekeeping gene Histone H3:\nCompound 2a stabilizes VPS35 levels in Neuro2a cells\nA cycloheximide (CHX) chase assay was performed to determine the degradation rate of VPS35 in Neuro2a cells (3x10^5 cells/well). Cells were treated with vehicle or 2a (10 µM) for 24 h, and then chased with CHX (10 µg/mL) for 2, 4 and 8h.\nWBs for VPS35 and β-Actin levels. Quantifications of normalized VPS35 levels (means normalized ratios ± SEM versus the time 0) are shown inpanel b (vehicle: n=10 independent wells, 2a: n=8 independent wells obtained from 3 independent experiments; control vs. 2a at 8 hours: p=0.009). c, quantitative real time PCR for Vps35, Vps26 and Vps29 mRNA (Vps35: controls n=8 independent wells; 2a: n=9 independent wells; Vps26 and Vps29: n=9 independent wells/group); data were collected from 3 independent experiments. […]", "data": [{"smiles": "NC(N)=N/N=C/c1cccc(/C=N/N=C(N)N)c1", "note": "[compound 2a, phenyl-1,3-bis-guanylhydrazone]", "values": [{"measurement": "transcription levels of CRC genes (Vps35, Vps26, Vps29 mRNAs)", "value": "did not influence"}]}]}
